Our source for the GI50 values is patent US12534457B2, “Heteroaryl derivative compounds, and uses thereof” (Voronoi Inc., priority 2021, dated 2026).

SMILES strings stand for the structures.

As usually defined, the GI50 is the concentration that inhibits growth by half.

This assay relates to Ba/F3 cells expressing EGFR Del19/C797S (EGFR DC). Kind of assay: Proliferation inhibitory activity, Ba/F3 cells expressing EGFR Del19/C797S (CellTiter-Glo). In kind it is cell-based. To be noted: Mus musculus, BaF3, 72 hours of compound treatment. The procedure, abridged: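 Viability after 72 h of compound exposure was measured by luminescence (CellTiter-Glo) in Ba/F3 lines transduced with mutant EGFR. Final concentrations spanned 0.2 nM–5 μM over 12 threefold steps. Growth relative to untreated control gave GI50 values; each test was run three times.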
A general note: ATP-based viability assays read luminescence as a measure of living cells.
As for `CCN1CCN(C2CCN(c3ccc(Nc4cc(N5OCC[C@@H]5c5ccccc5)ncn4)c(OC)c3)CC2)CC1` [Example 118, (R)—N-(4-(4-(4-ethylpiperazin-1-yl)piperidin-1-yl)-2-methoxyphenyl)-6-(3-phenylisoxazolidin-2-yl)pyrimidin-4-amine], the GI50 is under 50 nM.
The value for `COc1cc(N2CCC(N(C)C)CC2)ccc1Nc1cc(N2OCC[C@@H]2c2ccccc2)ncn1` [Example 119, (R)—N-(4-(4-(dimethylamino)piperidin-1-yl)-2-methoxyphenyl)-6-(3-phenylisoxazolidin-2-yl)pyrimidin-4-amine] was under 50 nM.
The value for `COc1cc(N2CCC(N3CCOCC3)CC2)ccc1Nc1cc(N2OCC[C@@H]2c2ccccc2)ncn1` [Example 120, (R)—N-(2-methoxy-4-(4-morpholinopiperidin-1-yl)phenyl)-6-(3-phenylisoxazolidin-2-yl)pyrimidin-4-amine] was under 50 nM.
Turning to `COc1cc(Nc2cc(N3OCC[C@@H]3c3ccccc3)ncn2)ccc1N1CCC(N2CCN(CCO)CC2)CC1` [Example 121, (R)-2-(4-(1-(2-methoxy-4-((6-(3-phenylisoxazolidin-2-yl)pyrimidin-4-yl)amino)phenyl)piperidin-4-yl)piperazin-1-yl)ethan-1-ol], the GI50 is under 50 nM.
The value for `CC(=O)N1CCN(c2ccc(Nc3cc(N4OCC[C@@H]4c4ccccc4)ncn3)cc2)CC1` [Example 122, (R)-1-(4-(4-((6-(3-phenylisoxazolidin-2-yl)pyrimidin-4-yl)amino)phenyl)piperazin-1-yl)ethan-1-one] was under 50 nM; that for `CN1CCN(C2CCN(c3c(F)cc(Nc4cc(N5OCC[C@@H]5c5ccccc5)ncn4)cc3F)CC2)CC1` [Example 123, (R)—N-(3,5-difluoro-4-(4-(4-methylpiperazin-1-yl)piperidin-1-yl)phenyl)-6-(3-phenylisoxazolidin-2-yl)pyrimidin-4-amine] was under 50 nM; that for `c1ccc([C@H]2CCON2c2cc(Nc3ccc(N4CCN(C5COC5)CC4)cc3)ncn2)cc1` [Example 124, (R)—N-(4-(4-(oxetan-3-yl)piperazin-1-yl)phenyl)-6-(3-phenylisoxazolidin-2-yl)pyrimidin-4-amine] was under 50 nM.
The value for `COc1cc(Nc2cc(N3OCC[C@@H]3c3cccc(Cl)c3F)ncn2)ccc1N1CCC(N2CCN(C)CC2)CC1` [Example 125, (R)-6-(3-(3-chloro-2-fluorophenyl)isoxazolidin-2-yl)-N-(3-methoxy-4-(4-(4-methylpiperazin-1-yl)piperidin-1-yl)phenyl)pyrimidin-4-amine] was under 50 nM.
Regarding `Cc1cc(Nc2cc(N3OCC[C@@H]3c3cccc(F)c3F)ncn2)ccc1N1CCC(N2CCN(C)CC2)CC1` [Example 126, (R)-6-(3-(2,3-difluorophenyl)isoxazolidin-2-yl)-N-(3-methyl-4-(4-(4-methylpiperazin-1-yl)piperidin-1-yl)phenyl)pyrimidin-4-amine], the concentration for 50% growth inhibition (GI50) is under 50 nM.
The value for `CN(C)C1CCN(c2ccc(Nc3cc(N4OCC[C@@H]4c4ccccc4)ncn3)cc2)CC1` [Example 127, (R)—N-(4-(4-(dimethylamino)piperidin-1-yl)phenyl)-6-(3-phenylisoxazolidin-2-yl)pyrimidin-4-amine] was under 50 nM; that for `COc1cc(N2CCC(N3CCN(C)CC3)CC2)ccc1Nc1cc(N2OCC[C@@H]2c2ccc(F)c(Cl)c2F)ncn1` [Example 130, (R)-6-(3-(3-chloro-2,4-difluorophenyl)isoxazolidin-2-yl)-N-(2-methoxy-4-(4-(4-methylpiperazin-1-yl)piperidin-1-yl)phenyl)pyrimidin-4-amine] was 50 to 500 nM; that for `COc1cc(N2CCC(N3CCN(C)CC3)CC2)ccc1Nc1cc(N2OCC[C@@H]2c2cccc(N(C)C)c2)ncn1` [Example 131, (R)-6-(3-(3-(dimethylamino)phenyl)isoxazolidin-2-yl)-N-(2-methoxy-4-(4-(4-methylpiperazin-1-yl)piperidin-1-yl)phenyl)pyrimidin-4-amine] was 50 to 500 nM.
The value for `Cn1cc(Nc2cc(N3OCC[C@@H]3c3ccccc3)ncn2)cn1` [Example 133, (R)—N-(1-methyl-1H-pyrazol-4-yl)-6-(3-phenylisoxazolidin-2-yl)pyrimidin-4-amine] was 50 to 500 nM.
Regarding `CC(C)(C)OC(=O)N1CCc2ccc(Nc3cc(N4OCC[C@@H]4c4ccccc4)ncn3)cc2C1` [Example 134, tert-butyl (R)-7-((6-(3-phenylisoxazolidin-2-yl)pyrimidin-4-yl)amino)-3,4-dihydroisoquinoline-2 (1H)-carboxylate], the GI50 is under 50 nM.
The value for `CN1CCC2(CC1)CCN(c1ccc(Nc3cc(N4OCC[C@@H]4c4ccccc4)ncn3)cc1)CC2` [Example 135, (R)—N-(4-(9-methyl-3,9-diazaspiro[5.5]undecan-3-yl)phenyl)-6-(3-phenylisoxazolidin-2-yl)pyrimidin-4-amine] was under 50 nM; that for `CN1C2CC1CN(c1ccc(Nc3cc(N4OCC[C@@H]4c4ccccc4)ncn3)cc1)C2` [Example 136, N-(4-(6-methyl-3,6-diazabicyclo[3.1.1]heptan-3-yl)phenyl)-6-((R)-3-phenylisoxazolidin-2-yl)pyrimidin-4-amine] was under 50 nM; that for `CN1CCN(c2ccc(Nc3cc(N4OCC[C@@H]4c4ccccc4)ncn3)cc2OCC(F)(F)F)CC1` [Example 139, (R)—N-(4-(4-methylpiperazin-1-yl)-3-(2,2,2-trifluoroethoxy)phenyl)-6-(3-phenylisoxazolidin-2-yl)pyrimidin-4-amine] was under 50 nM.
The value for `COc1cc(N2CCC(N3CCN(C)CC3)C(F)C2)ccc1Nc1cc(N2OCC[C@@H]2c2cccc(F)c2F)ncn1` (stereo partly drawn) [Example 140, 6-((R)-3-(2,3-difluorophenyl)isoxazolidin-2-yl)-N-(4-(3-fluoro-4-(4-methylpiperazin-1-yl)piperidin-1-yl)-2-methoxyphenyl)pyrimidin-4-amine] was under 50 nM.
Consider `COc1cc(C2CCN(C)CC2)ccc1Nc1cc(N2OCC[C@@H]2c2cccc(F)c2F)ncn1` [Example 141, (R)-6-(3-(2,3-difluorophenyl)isoxazolidin-2-yl)-N-(2-methoxy-4-(1-methylpiperidin-4-yl)phenyl)pyrimidin-4-amine], for which the GI50 is under 50 nM.
The value for `COc1cc(N2CCC(N3CCN(C)CC3)CC2)c(C(C)C)cc1Nc1cc(N2OCC[C@@H]2c2cccc(F)c2F)ncn1` [Example 142, (R)-6-(3-(2,3-difluorophenyl)isoxazolidin-2-yl)-N-(5-isopropyl-2-methoxy-4-(4-(4-methylpiperazin-1-yl)piperidin-1-yl)phenyl)pyrimidin-4-amine] was under 50 nM; that for `COc1cc(N2CCC(N3CCN(C)CC3)CC2)c(C2CC2)cc1Nc1cc(N2OCC[C@@H]2c2ccccc2)ncn1` [Example 143, (R)—N-(5-cyclopropyl-2-methoxy-4-(4-(4-methylpiperazin-1-yl)piperidin-1-yl)phenyl)-6-(3-phenylisoxazolidin-2-yl)pyrimidin-4-amine] was under 50 nM.
The value for `COc1cc(N2CCC(N3CCN(C)CC3)CC2)c(C(C)=O)cc1Nc1cc(N2OCC[C@@H]2c2cccc(F)c2F)ncn1` [Example 145, (R)-1-(5-((6-(3-(2,3-difluorophenyl)isoxazolidin-2-yl)pyrimidin-4-yl)amino)-4-methoxy-2-(4-(4-methylpiperazin-1-yl)piperidin-1-yl)phenyl)ethan-1-one] was under 50 nM.
The value for `CO/N=C(\C)c1cc(Nc2cc(N3OCC[C@@H]3c3cccc(F)c3F)ncn2)c(OC)cc1N1CCC(N2CCN(C)CC2)CC1` [Example 146, (R,E)-1-(5-((6-(3-(2,3-difluorophenyl)isoxazolidin-2-yl)pyrimidin-4-yl)amino)-4-methoxy-2-(4-(4-methylpiperazin-1-yl)piperidin-1-yl)phenyl)ethan-1-one O-methyl oxime] was under 50 nM.
With `COc1nc(N2CCC(N3CCN(C)CC3)CC2)c(-c2cnn(C)c2)cc1Nc1cc(N2OCC[C@@H]2c2ccccc2)ncn1` [Example 147, (R)—N-(2-methoxy-5-(1-methyl-1H-pyrazol-4-yl)-6-(4-(4-methylpiperazin-1-yl)piperidin-1-yl)pyridin-3-yl)-6-(3-phenylisoxazolidin-2-yl)pyrimidin-4-amine], the GI50 was under 50 nM.
The value for `COc1cc2c(cc1Nc1cc(N3OCC[C@@H]3c3cc(F)cc(F)c3)ncn1)N(C(=O)C(F)(F)F)CC21CCN(C)CC1` [Example 152, (R)-1-(6-((6-(3-(3,5-difluorophenyl)isoxazolidin-2-yl)pyrimidin-4-yl)amino)-5-methoxy-1′-methylspiro[indolin-3,4′-piperidin]-1-yl)-2,2,2-trifluoroethan-1-one] was under 50 nM.
The value for `COc1cc2c(cc1Nc1cc(N3OCC[C@@H]3c3cc(F)cc(F)c3)ncn1)NCC21CCN(C)CC1` [Example 154, (R)—N-(6-(3-(3,5-difluorophenyl)isoxazolidin-2-yl)pyrimidin-4-yl)-5-methoxy-1′-methylspiro[indolin-3,4′-piperidin]-6-amine] was under 50 nM.
The value for `CN1CCC(c2ccc(Nc3cc(N4OCC[C@@H]4c4cc(F)cc(F)c4)ncn3)c3c2CCO3)CC1` [Example 155, (R)-6-(3-(3,5-difluorophenyl)isoxazolidin-2-yl)-N-(4-(1-methylpiperidin-4-yl)-2,3-dihydrobenzofuran-7-yl)pyrimidin-4-amine] was under 50 nM.
For the compound `Fc1cc(F)cc([C@H]2CCON2c2cc(Nc3ccc(C4CCNCC4)c4c3OCC4)ncn2)c1` [Example 157, (R)-6-(3-(3,5-difluorophenyl)isoxazolidin-2-yl)-N-(4-(piperidin-4-yl)-2,3-dihydrobenzofuran-7-yl)pyrimidin-4-amine], the concentration for 50% growth inhibition (GI50) is under 50 nM.
The value for `Fc1cc(F)cc([C@H]2CCON2c2cc(Nc3cccc4c3OCC4)ncn2)c1` [Example 159, (R)-6-(3-(3,5-difluorophenyl)isoxazolidin-2-yl)-N-(2,3-dihydrobenzofuran-7-yl)pyrimidin-4-amine] was 50 to 500 nM.
